In patent US7964599B2, “Therapeutic compounds” (Allergan, Inc., priority 2008, dated 2011):

Columns and labels:
Format in all cases: in vivo
[1] = test system: laser-induced hypertensive monkeys; assay: Intraocular pressure reduction in laser-induced hypertensive monkeys; conditions: change from baseline
Method: [The source words this procedure for another organism and reports this organism under the same test.] (§1) Compounds such as those described in the above are tested in vivo to measure its ability to reduce intraocular pressure. Compound 1 is tested in normotensive dogs.

normotensive dogs = assay: Intraocular pressure reduction in normotensive dogs; conditions: change from baseline
Method: as §1

[2] = test system: lashes and adjacent hairs of patients; assay: Eyelash/hair growth observed in glaucoma patients treated in one eye; conditions: glaucoma patient treated in only one eye
Excerpt: In the course of treating patients having glaucoma, treatment may only be appropriate in one eye. […] The lash appearance on the lids of the treated eyes would have appeared quite attractive if it represented a bilateral phenomenon. As a result of its asymmetric nature, the long lashes on one side could be construed as disturbing from a cosmetic standpoint. A systemic examination was preformed as a result of the asymmetric phenomenon. It soon became apparent that this altered appearance was not an isolated finding. […] Definite differences could be identified to varying degrees in the lashes and adjacent hairs of all patients who were taking the drug on a unilateral basis for longer than 6 months.
The changes in the lashes were apparent on gross inspection in several patients once attention was focused on the issue. In those with light colored hair and lashes, the differences were only seen easily with the aid of the high magnification and lighting capabilities of the slit lamp biomicroscope. In the course of glaucoma follow-up examination, attention is generally immediately focused on the eye itself. As a result of the high power magnification needed only one eye is seen at a time and the eye is seen at a high enough power that the lashes are not in focus. […]

Molecule | IOP [1] | intraocular pressure (IOP) (normotensive dogs) | lash appearance in treated eye versus non-treated eye [2]
CCCCCC(=O)c1ccc([C@H]2C(=O)C[C@@H](Cl)[C@@H]2C/C=C\CCCC(=O)OCCN2CCOCC2)cc1 [Compound 5] | decreases from baseline | decreases from baseline | 
CCCCCC(O)c1ccc([C@H]2C(=O)C[C@@H](Cl)[C@@H]2C/C=C\CCCC(=O)OCCN2CCOCC2)cc1 (stereo partly drawn) [Compound 6] | decreases from baseline | decreases from baseline | 
CCCCCC(O)c1ccc([C@H]2C(O)C[C@@H](Cl)[C@@H]2C/C=C\CCCC(=O)OCCN2CCOCC2)cc1 (stereo partly drawn) [Compound 7] | decreases from baseline | decreases from baseline | 
CCCCCC(=O)c1ccc([C@H]2C(O)C[C@@H](Cl)[C@@H]2C/C=C\CCCC(=O)OCCN2CCOCC2)cc1 (stereo partly drawn) [Compound 8] | decreases from baseline | decreases from baseline | 
CCNC(=O)CCC/C=C\C[C@@H]1[C@@H](/C=C/[C@@H](O)CCc2ccccc2)[C@H](O)C[C@@H]1O [bimatoprost] |  |  | longer, thicker, and fuller
(Z)-7-[(1R,2S,3R,5R)-5-Chloro-2-(4-hexanoyl-phenyl)-3-hydroxy-cyclopentyl]-hept-5-enoic acid [Compound 3] | decreases from baseline | decreases from baseline | 
(Z)-7-[(1R,2S,3R,5R)-5-Chloro-2-(4-hexanoyl-phenyl)-3-hydroxy-cyclopentyl]-hept-5-enoic acid methyl ester [Compound 2] | decreases from baseline | decreases from baseline | 
(Z)-7-{(1R,2S,3R,5R)-5-Chloro-3-hydroxy-2-[4-(1-hydroxy-hexyl)-phenyl]-cyclopentyl}-hept-5-enoic acid methyl ester [Compound 1] | decreases from baseline | decreases from baseline | 
